In ChEMBL document CHEMBL4765341, “A series of octahydroquinazoline-5-ones as novel inhibitors against dengue virus” (Eur J Med Chem, 2020):
Active and inactive are the calls of the source. No cut-off for these calls is given here.

Tests used:
dengue virus type 2 [1] = assay: Antiviral activity against DENV-2 infected in BHK-21 cells assessed as cytopathic effect after 96 hrs by LDH assay; type: functional, organism-based; settings: for EC50: BHK-21, 96 h
[2] = Cytotoxicity against golden hamster BHK-21 cells incubated for 48 hrs by MTT assay; type: cell-based, Mesocricetus auratus
[3] = Selectivity index, ratio of CC50 for golden hamster BHK-21 cells EC50 for DENV-2 infected in BHK-21 cells; type: toxicity, cell-based; settings: read-out: Selectivity Index
BHK-21 [4] = assay: Reduction in viral structure E protein expression in second round DENV-2 infected golden hamster BHK-21 cells assessed in new virions at 0.5 to 10 uM measured after 24 hrs by Western blot analysis relative to control; type: functional, cell-based; settings: dengue virus type 2, dose 0.5-10 µM
dengue virus type 2 [5] = assay: Antiviral activity against second round DENV-2 infected in BHK-21 cells assessed as reduction in new virion infectivity measured after 24 hrs by focus-forming assay; type: functional, organism-based
BHK-21 [6] = assay: Binding affinity to MTase domain of NS5 in DENV-2 infected in BHK-21 cells by isothermal titration calorimetry assay; settings: dengue virus type 2
BHK-21 [7] = assay: Binding affinity to RdRp domain of NS5 in DENV-2 infected in BHK-21 cells by isothermal titration calorimetry assay; settings: dengue virus type 2
BHK-21 [8] = assay: Reduction in viral structure E protein expression in DENV-2 infected golden hamster BHK-21 cells at 2.5 uM by Western blot analysis relative to control; type: functional, cell-based; settings: dengue virus type 2
[9] = Reduction in viral structure E protein expression in DENV-2 infected golden hamster BHK-21 cells at 10 uM by Western blot analysis relative to control; type: functional, dengue virus type 2; settings: Dengue virus
BHK-21 [10] = assay: Reduction in viral structure E protein expression in second round DENV-2 infected golden hamster BHK-21 cells assessed in new virions at 0.5 to 10 uM measured after 24 hrs by confocal microscopy relative to control; type: functional, cell-based; settings: dengue virus type 2, dose 0.5-10 µM

Row | Structure (SMILES) | EC50 (dengue virus type 2 [1]) [µM] | other results
1 | CC1(C)CC(=O)C2=C(C1)N(c1ccccc1)C(c1ccccc1)N(c1ccccc1)C2 (centres undefined) | > 20 | 
2 | COc1cc(C2N(c3ccccc3)CC3=C(CC(C)(C)CC3=O)N2c2ccccc2)cc(OC)c1O (centres undefined) | > 20 | 
3 | CC1(C)CC(=O)C2=C(C1)N(c1ccccc1)C(c1ccc([N+](=O)[O-])cc1)N(c1ccccc1)C2 (centres undefined) | 3.75 | 
4 | CC1(C)CC(=O)C2=C(C1)N(c1ccccc1)C(c1ccc(Br)cc1)N(c1ccc(Cl)cc1)C2 (centres undefined) | 1.38 | CC50 at 48 h [2]: 12.7 µM; selectivity ratio [3]: 9.18
5 | CC1(C)CC(=O)C2=C(C1)N(c1ccccc1)C(c1ccc3ccccc3c1)N(c1ccccc1)C2 (centres undefined) | > 20 | 
6 | CC1(C)CC(=O)C2=C(C1)N(c1ccccc1)C(c1cccs1)N(c1ccccc1)C2 (centres undefined) | > 20 | 
7 | CC1(C)CC(=O)C2=C(C1)N(c1ccccc1)C(c1ccc(F)cc1)N(c1ccccc1)C2 (centres undefined) | > 20 | 
8 | CC1(C)CC(=O)C2=C(C1)N(c1ccc(-c3ccccc3)cc1)C(c1ccc(Br)cc1)N(c1ccc(Cl)cc1)C2 (centres undefined) | > 20 | 
9 | CC1(C)CC(=O)C2=C(C1)N(c1ccccc1)C(c1ccc(Cl)cc1)N(c1ccccc1)C2 (centres undefined) | 5.96 | 
10 | CC1(C)CC(=O)C2=C(C1)N(c1ccc(Cc3ccccc3)cc1)C(c1ccc(Br)cc1)N(c1ccc(Cl)cc1)C2 (centres undefined) | > 20 | 
11 | CC1(C)CC(=O)C2=C(C1)N(c1ccccc1)C(c1ccc(C(C)(C)C)cc1)N(c1ccccc1)C2 (centres undefined) | 8.61 | 
12 | CC1(C)CC(=O)C2=C(C1)N(c1ccc3ccccc3c1)C(c1ccc(Br)cc1)N(c1ccc(Cl)cc1)C2 (centres undefined) | 13.5 | 
13 | CC1(C)CC(=O)C2=C(C1)N(c1ccccc1)C(c1ccc(Br)cc1)N(c1ccc(Br)cc1)C2 (centres undefined) | 2.33 | 
14 | CC1(C)CC(=O)C2=C(C1)N(c1ccccc1)C(c1cccc([N+](=O)[O-])c1)N(c1ccccc1)C2 (centres undefined) | 2.83 | 
15 | CC1(C)CC(=O)C2=C(C1)N(c1ccccc1)C(c1ccc(OC(C)(C)C)cc1)N(c1ccccc1)C2 (centres undefined) | 2.63 | 
16 | CC(C)c1ccc(N2CC3=C(CC(C)(C)CC3=O)N(c3ccccc3)C2c2ccc(Br)cc2)cc1 (centres undefined) | 5.55 | 
17 | CC1(C)CC(=O)C2=C(C1)N(c1ccccc1)C(c1ccc(O)cc1)N(c1ccccc1)C2 (centres undefined) | > 20 | 
18 | CC(C)Oc1ccc(C2N(c3ccccc3)CC3=C(CC(C)(C)CC3=O)N2c2ccccc2)cc1 (centres undefined) | 5.03 | 
19 | CC1(C)CC(=O)C2=C(C1)N(c1ccccc1)C(c1ccc(C(F)(F)F)cc1)N(c1ccccc1)C2 (centres undefined) | 3.75 | 
20 | CC1(C)CC(=O)C2=C(C1)N(c1ccccc1)C(c1ccc(Br)cc1)N(c1cccc(Cl)c1)C2 (centres undefined) | 4.73 | 
21 | CC1(C)CC(=O)C2=C(C1)N(c1ccccc1)C(c1cccc(C(F)(F)F)c1)N(c1ccccc1)C2 (centres undefined) | 1.32 | CC50 at 48 h [2]: 17.9 µM; selectivity ratio [3]: 13.5
22 | CC1(C)CC(=O)C2=C(C1)N(c1ccccc1)C(c1ccc(Br)cc1)N(c1ccccc1)C2 (centres undefined) | 2.85 | CC50 at 48 h [2]: > 20 µM; selectivity ratio [3]: > 7.02
23 | CC1(C)CC(=O)C2=C(C1)N(c1ccc(Oc3ccccc3)cc1)C(c1ccc(Br)cc1)N(c1ccc(Cl)cc1)C2 (centres undefined) | > 20 | 
24 | CC(C)c1ccc(C2N(c3ccccc3)CC3=C(CC(C)(C)CC3=O)N2c2ccccc2)cc1 (centres undefined) | 3.6 | 
25 | CC1(C)CC(=O)C2=C(C1)N(c1ccccc1)C(c1ccc(Br)cc1)N(c1ccc(OC(F)(F)F)cc1)C2 (centres undefined) | 1.84 | 

Row | Structure (SMILES) | EC50 (dengue virus type 2 [1]) [µM] | other results
26 | CC1(C)CC(=O)C2=C(C1)N(c1ccccc1)C(c1ccc(OCc3ccccc3)cc1)N(c1ccccc1)C2 (centres undefined) | 2.61 | 
27 | CC1(C)CC(=O)C2=C(C1)N(c1ccccc1)C(c1ccc(Br)cc1)N(c1ccc(Oc3ccccc3)cc1)C2 (centres undefined) | 1.85 | CC50 at 48 h [2]: 10.9 µM; selectivity ratio [3]: 5.89
28 | CC1(C)CC(=O)C2=C(C1)N(c1ccccc1)C(c1cccc(Br)c1)N(c1ccccc1)C2 (centres undefined) | 1.31 | inhibition (BHK-21 [4]): Active; Activity (dengue virus type 2 [5]): Active; Activity (BHK-21 [6]): inactive; Activity (BHK-21 [7]): inactive; CC50 at 48 h [2]: > 20 µM; Activity (dengue virus type 2 [1]): Dose-dependent effect; selectivity ratio [3]: > 15.3; inhibition (BHK-21 [8]): Active; inhibition at 10 µM [9]: 100%; inhibition (BHK-21 [10]): Active
29 | COc1ccc(N2CC3=C(CC(C)(C)CC3=O)N(c3ccccc3)C2c2ccc(Br)cc2)cc1 (centres undefined) | 5.42 | 
30 | CC1(C)CC(=O)C2=C(C1)N(c1ccccc1)C(c1ccc(Br)cc1)N(c1ccc3ccccc3c1)C2 (centres undefined) | 1.77 | 
31 | CC1(C)CC(=O)C2=C(C1)N(c1ccccc1)C(c1ccc(Br)cc1)N(Cc1ccccc1)C2 (centres undefined) | > 20 | 
32 | CC1(C)CC(=O)C2=C(C1)N(c1ccccc1)C(c1ccc(C#N)cc1)N(c1ccccc1)C2 (centres undefined) | 7.45 | 
33 | CC(C)C1N(c2ccccc2)CC2=C(CC(C)(C)CC2=O)N1c1ccccc1 (centres undefined) | > 20 | 
34 | CCCCC1N(c2ccccc2)CC2=C(CC(C)(C)CC2=O)N1c1ccccc1 (centres undefined) | > 20 | 
35 | CC1(C)CC(=O)C2=C(C1)N(c1ccccc1)C(c1ccc(Br)cc1)N(c1ccc(C(F)(F)F)cc1)C2 (centres undefined) | 4.02 | 
36 | COc1ccc(C2N(c3ccccc3)CC3=C(CC(C)(C)CC3=O)N2c2ccccc2)cc1 (centres undefined) | 7.52 | 
37 | CC1(C)CC(=O)C2=C(C1)N(Cc1ccccc1)C(c1ccccc1)N(Cc1ccccc1)C2 (centres undefined) | > 20 | 
38 | CC1(C)CC(=O)C2=C(C1)N(c1ccccc1)C(c1cccc3ccccc13)N(c1ccccc1)C2 (centres undefined) | 3.87 | 
39 | COc1ccc(N2C3=C(CN(c4ccc(Cl)cc4)C2c2ccc(Br)cc2)C(=O)CC(C)(C)C3)cc1 (centres undefined) | 2.6 | CC50 at 48 h [2]: > 20 µM; selectivity ratio [3]: > 7.69
40 | CC1(C)CC(=O)C2=C(C1)N(c1ccccc1)C(c1ccc(Br)cc1)N(c1ccccc1Cl)C2 (centres undefined) | > 20 | 
41 | CC1(C)CC(=O)C2=C(C1)N(c1ccccc1)C(c1ccc(Br)cc1)N(c1ccc(-c3ccccc3)cc1)C2 (centres undefined) | > 20 | 
42 | CC1(C)CC(=O)C2=C(C1)N(c1ccccc1)C(c1ccc(Br)cc1)N(c1ccc(F)cc1)C2 (centres undefined) | 1.9 | CC50 at 48 h [2]: 10 µM; selectivity ratio [3]: 5.3
43 | CC1(C)CC(=O)C2=C(C1)N(c1ccc(Cl)cc1)C(c1ccc(Br)cc1)N(c1ccc(Cl)cc1)C2 (centres undefined) | 4.33 | 
44 | CC1(C)CC(=O)C2=C(C1)N(c1cccc(Cl)c1)C(c1ccc(Br)cc1)N(c1ccc(Cl)cc1)C2 (centres undefined) | 5.6 | 
45 | CC1(C)CC(=O)C2=C(C1)N(c1ccc(F)cc1)C(c1ccc(Br)cc1)N(c1ccc(Cl)cc1)C2 (centres undefined) | 2.64 | CC50 at 48 h [2]: > 20 µM; selectivity ratio [3]: > 7.58
46 | CC1(C)CC(=O)C2=C(C1)N(c1ccccc1)C(c1ccc(-c3ccccc3)cc1)N(c1ccccc1)C2 (centres undefined) | > 20 | 
47 | CC1(C)CC(=O)C2=C(C1)N(c1ccccc1)C(c1ccccc1Br)N(c1ccccc1)C2 (centres undefined) | 3.88 | 
48 | CC1(C)CC(=O)C2=C(C1)N(c1ccccc1)C(c1ccc(OC(F)(F)F)cc1)N(c1ccccc1)C2 (centres undefined) | 2.52 | 
49 | CC1(C)CC(=O)C2=C(C1)N(c1ccccc1)C(c1ccc(Br)cc1)N(c1ccc(C(C)(C)C)cc1)C2 (centres undefined) | 5.33 | 
50 | Cc1ccc(C2N(c3ccccc3)CC3=C(CC(C)(C)CC3=O)N2c2ccccc2)s1 (centres undefined) | 3.24 | 
